ChEMBL document CHEMBL4304809 (ACS Med Chem Lett, 2019)
pKi: −log10 of the molar value. Values after ≈ are worked out from the molar mass of the structure shown. Active and inactive are the calls of the source. The rule behind the calls is not given here.

Columns and labels:
[1] = target: RAC-alpha serine/threonine-protein kinase (Homo sapiens) (UniProt P31749); assay: Inhibition of full length His-tagged recombinant human AKT1 expressed in Baculovirus expression system at 0.1 uM using Fluorescein-Crosstide as substrate incubated for 1 hr by TR-FRET assay relative to control
[2] = target: T1, Serine/threonine-protein kinase D1 (Homo sapiens, UniProt Q15139); assay: Inhibition of full length GST-tagged human PRKD1 expressed in Baculovirus expression system using ATP as substrate incubated for 1 to 2 hrs by transcreener ADP assay based fluorescence correlation spectroscopic analysis
T1 sequence (Q15139 whole entry): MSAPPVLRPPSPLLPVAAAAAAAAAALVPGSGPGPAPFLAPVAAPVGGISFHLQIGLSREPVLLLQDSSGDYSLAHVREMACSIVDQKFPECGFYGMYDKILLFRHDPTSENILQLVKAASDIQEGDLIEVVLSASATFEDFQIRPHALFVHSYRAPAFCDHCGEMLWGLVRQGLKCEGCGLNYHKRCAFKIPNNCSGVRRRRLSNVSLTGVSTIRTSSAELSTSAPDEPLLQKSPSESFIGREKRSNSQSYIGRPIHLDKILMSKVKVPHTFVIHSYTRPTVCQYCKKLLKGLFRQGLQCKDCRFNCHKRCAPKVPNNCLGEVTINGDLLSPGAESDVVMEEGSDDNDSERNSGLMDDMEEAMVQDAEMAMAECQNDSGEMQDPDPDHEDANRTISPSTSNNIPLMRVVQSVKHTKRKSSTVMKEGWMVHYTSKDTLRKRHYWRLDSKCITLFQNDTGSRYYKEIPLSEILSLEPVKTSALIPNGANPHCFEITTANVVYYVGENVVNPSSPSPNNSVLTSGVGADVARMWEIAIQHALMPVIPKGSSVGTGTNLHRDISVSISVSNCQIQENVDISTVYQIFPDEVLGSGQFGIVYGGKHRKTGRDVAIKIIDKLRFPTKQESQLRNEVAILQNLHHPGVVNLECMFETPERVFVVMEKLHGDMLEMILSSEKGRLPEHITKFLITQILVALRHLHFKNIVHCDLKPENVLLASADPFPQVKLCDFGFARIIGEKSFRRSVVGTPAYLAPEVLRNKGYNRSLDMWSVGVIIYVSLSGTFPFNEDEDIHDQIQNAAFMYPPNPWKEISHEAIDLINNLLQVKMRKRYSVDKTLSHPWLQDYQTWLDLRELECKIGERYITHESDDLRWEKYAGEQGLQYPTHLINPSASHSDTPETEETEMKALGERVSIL

[3] = Kinetic solubility of the compound; type: physicochemical; details: read-out: Kinetic_solubility
[4] = target: T2, Serine/threonine-protein kinase D1 (Homo sapiens) (UniProt Q15139); assay: Inhibition of full length GST-tagged recombinant human PRKD1 expressed in Baculovirus expression system at 0.1 uM using Fluorescein-CREBtide as substrate incubated for 1 hr by TR-FRET assay relative to control
T2 sequence (whole entry): T1 sequence (Q15139 whole entry)

[5] = target: Misshapen-like kinase 1 (Homo sapiens) (UniProt Q8N4C8); assay: Inhibition of recombinant GST-tagged human MINK1 catalytic domain (1 to 320 residues) expressed in Baculovirus expression system at 0.1 uM using Fluorescein-PKC as substrate incubated for 1 hr by TR-FRET assay relative to control
Chain of Misshapen-like kinase 1 (Homo sapiens) (Q8N4C8 whole entry, looked up, the tested form may be a part): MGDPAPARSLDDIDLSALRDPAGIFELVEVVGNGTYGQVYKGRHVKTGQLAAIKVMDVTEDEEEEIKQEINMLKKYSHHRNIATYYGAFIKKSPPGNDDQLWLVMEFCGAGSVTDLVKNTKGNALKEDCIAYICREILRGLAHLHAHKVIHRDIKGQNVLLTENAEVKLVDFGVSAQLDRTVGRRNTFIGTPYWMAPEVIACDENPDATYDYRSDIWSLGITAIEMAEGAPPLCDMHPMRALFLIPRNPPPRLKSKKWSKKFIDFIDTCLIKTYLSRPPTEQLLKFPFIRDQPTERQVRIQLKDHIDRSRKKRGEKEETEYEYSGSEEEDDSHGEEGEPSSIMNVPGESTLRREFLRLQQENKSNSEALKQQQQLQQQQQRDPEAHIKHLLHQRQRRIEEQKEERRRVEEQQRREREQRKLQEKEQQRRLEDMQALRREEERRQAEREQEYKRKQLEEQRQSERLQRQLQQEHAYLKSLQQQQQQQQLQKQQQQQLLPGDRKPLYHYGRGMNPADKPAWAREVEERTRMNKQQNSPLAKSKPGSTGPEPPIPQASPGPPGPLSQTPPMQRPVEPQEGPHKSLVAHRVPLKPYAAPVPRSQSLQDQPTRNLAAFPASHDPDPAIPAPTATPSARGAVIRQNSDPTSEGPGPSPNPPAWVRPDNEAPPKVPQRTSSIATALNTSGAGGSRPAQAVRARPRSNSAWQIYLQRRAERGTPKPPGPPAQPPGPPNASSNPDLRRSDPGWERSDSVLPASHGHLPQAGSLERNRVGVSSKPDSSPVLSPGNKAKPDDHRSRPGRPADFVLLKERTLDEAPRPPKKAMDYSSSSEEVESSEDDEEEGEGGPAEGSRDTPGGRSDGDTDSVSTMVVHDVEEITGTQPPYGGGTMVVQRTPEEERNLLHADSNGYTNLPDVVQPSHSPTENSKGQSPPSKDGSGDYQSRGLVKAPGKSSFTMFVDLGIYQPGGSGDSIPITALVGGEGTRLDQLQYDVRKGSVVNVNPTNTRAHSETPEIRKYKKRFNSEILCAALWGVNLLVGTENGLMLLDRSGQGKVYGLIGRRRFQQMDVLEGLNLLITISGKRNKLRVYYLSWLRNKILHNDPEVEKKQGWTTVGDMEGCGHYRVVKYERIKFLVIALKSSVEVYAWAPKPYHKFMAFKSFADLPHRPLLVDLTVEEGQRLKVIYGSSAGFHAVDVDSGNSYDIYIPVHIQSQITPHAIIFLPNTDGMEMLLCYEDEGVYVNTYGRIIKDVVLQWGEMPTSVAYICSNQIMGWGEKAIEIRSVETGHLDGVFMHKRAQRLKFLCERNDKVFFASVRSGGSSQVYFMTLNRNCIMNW

[6] = target: Tyrosine-protein kinase JAK1 (Homo sapiens) (UniProt P23458); assay: Inhibition of recombinant GST-tagged human JAK1 catalytic domain (866 to 1154 residues) expressed in Baculovirus expression system at 0.1 uM using GFP-STAT1 as substrate incubated for 1 hr by TR-FRET assay relative to control
Chain of Tyrosine-protein kinase JAK1 (Homo sapiens) (P23458 whole entry, the tested form may be a part): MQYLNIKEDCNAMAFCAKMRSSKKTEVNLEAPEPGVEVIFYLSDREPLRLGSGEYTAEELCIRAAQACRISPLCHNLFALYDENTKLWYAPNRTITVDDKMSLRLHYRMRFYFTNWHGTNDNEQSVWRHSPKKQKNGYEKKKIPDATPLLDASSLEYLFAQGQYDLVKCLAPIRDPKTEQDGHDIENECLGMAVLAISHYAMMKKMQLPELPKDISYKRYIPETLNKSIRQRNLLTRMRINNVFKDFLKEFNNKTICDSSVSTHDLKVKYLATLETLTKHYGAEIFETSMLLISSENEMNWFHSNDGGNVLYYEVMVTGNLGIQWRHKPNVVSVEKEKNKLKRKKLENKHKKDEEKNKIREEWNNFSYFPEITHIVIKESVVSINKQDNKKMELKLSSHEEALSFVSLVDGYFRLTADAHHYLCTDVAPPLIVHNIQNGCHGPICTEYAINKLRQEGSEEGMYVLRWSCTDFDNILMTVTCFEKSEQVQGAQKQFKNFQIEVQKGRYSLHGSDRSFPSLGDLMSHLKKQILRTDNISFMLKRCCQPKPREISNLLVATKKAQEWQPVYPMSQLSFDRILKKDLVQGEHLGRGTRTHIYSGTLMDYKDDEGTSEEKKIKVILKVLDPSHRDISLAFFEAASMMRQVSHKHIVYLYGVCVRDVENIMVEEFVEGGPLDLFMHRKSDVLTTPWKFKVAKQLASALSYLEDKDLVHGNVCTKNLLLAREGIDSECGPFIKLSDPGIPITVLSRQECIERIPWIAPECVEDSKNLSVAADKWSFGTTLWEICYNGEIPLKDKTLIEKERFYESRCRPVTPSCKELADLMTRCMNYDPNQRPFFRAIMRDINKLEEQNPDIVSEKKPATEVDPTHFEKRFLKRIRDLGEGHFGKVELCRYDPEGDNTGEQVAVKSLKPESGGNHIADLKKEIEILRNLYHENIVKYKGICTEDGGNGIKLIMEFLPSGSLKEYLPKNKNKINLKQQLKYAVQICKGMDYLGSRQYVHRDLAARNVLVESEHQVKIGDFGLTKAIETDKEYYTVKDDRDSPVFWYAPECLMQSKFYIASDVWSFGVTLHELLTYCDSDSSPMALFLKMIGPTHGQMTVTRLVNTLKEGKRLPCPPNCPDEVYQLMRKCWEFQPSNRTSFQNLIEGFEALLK

[7] = Lipophilicity, log D of the compound at pH 7.4; type: physicochemical; details: buffer
[8] = target: Mitogen-activated protein kinase kinase kinase kinase 4 (Homo sapiens) (UniProt O95819); assay: Inhibition of recombinant GST-tagged human MAP4K4 catalytic domain (1 to 328 residues) expressed in Baculovirus expression system at 0.1 uM using Fluorescein-PKC as substrate incubated for 1 hr by TR-FRET assay relative to control
Chain of Mitogen-activated protein kinase kinase kinase kinase 4 (Homo sapiens) (O95819 2-1239 limits assumed): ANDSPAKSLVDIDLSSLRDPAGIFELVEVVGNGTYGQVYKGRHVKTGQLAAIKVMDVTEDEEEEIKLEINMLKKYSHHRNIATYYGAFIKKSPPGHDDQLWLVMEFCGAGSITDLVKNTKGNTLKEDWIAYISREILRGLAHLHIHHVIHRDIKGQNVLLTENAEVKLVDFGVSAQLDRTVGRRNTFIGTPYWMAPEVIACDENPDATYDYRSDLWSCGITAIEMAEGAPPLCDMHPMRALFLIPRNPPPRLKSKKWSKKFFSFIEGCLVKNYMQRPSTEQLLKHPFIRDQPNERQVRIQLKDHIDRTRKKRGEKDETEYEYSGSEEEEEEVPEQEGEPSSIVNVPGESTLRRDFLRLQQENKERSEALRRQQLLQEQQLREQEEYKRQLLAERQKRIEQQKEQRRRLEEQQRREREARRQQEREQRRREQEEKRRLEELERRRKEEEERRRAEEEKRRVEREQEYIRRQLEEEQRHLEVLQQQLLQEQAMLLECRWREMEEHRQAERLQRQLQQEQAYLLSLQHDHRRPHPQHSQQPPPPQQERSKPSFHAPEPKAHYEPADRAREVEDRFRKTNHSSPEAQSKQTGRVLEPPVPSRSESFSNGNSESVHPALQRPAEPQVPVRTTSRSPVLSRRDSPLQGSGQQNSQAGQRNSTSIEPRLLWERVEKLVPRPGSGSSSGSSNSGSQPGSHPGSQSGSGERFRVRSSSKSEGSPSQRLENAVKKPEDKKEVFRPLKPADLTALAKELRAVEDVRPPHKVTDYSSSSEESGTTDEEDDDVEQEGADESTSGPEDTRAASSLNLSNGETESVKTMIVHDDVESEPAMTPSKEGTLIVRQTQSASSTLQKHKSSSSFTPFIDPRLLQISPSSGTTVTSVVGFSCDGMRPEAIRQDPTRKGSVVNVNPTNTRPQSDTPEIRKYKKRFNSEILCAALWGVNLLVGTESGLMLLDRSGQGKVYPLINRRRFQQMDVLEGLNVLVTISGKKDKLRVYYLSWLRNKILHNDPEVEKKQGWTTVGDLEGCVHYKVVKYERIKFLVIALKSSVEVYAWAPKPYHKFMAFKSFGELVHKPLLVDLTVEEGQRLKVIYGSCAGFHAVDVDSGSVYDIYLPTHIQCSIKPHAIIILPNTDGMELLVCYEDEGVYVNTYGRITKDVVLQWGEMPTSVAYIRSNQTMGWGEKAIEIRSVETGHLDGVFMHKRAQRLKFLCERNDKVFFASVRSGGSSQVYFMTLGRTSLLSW

[9] = target: Serine/threonine-protein kinase PAK 4 (Homo sapiens) (UniProt O96013); assay: Inhibition of recombinant GST-tagged human PAK4 catalytic domain (295 to 591 residues) expressed in Baculovirus expression system at 0.1 uM using Fluorescein-Crosstide as substrate incubated for 1 hr by TR-FRET assay relative to control
[10] = target: Mitogen-activated protein kinase kinase kinase 14 (Homo sapiens, UniProt Q99558); assay: Inhibition of NIK (unknown origin) using ATP as substrate by transcreener ADP assay based fluorescence correlation spectroscopic analysis; type: single protein
Chain of Mitogen-activated protein kinase kinase kinase 14 (Q99558 whole entry): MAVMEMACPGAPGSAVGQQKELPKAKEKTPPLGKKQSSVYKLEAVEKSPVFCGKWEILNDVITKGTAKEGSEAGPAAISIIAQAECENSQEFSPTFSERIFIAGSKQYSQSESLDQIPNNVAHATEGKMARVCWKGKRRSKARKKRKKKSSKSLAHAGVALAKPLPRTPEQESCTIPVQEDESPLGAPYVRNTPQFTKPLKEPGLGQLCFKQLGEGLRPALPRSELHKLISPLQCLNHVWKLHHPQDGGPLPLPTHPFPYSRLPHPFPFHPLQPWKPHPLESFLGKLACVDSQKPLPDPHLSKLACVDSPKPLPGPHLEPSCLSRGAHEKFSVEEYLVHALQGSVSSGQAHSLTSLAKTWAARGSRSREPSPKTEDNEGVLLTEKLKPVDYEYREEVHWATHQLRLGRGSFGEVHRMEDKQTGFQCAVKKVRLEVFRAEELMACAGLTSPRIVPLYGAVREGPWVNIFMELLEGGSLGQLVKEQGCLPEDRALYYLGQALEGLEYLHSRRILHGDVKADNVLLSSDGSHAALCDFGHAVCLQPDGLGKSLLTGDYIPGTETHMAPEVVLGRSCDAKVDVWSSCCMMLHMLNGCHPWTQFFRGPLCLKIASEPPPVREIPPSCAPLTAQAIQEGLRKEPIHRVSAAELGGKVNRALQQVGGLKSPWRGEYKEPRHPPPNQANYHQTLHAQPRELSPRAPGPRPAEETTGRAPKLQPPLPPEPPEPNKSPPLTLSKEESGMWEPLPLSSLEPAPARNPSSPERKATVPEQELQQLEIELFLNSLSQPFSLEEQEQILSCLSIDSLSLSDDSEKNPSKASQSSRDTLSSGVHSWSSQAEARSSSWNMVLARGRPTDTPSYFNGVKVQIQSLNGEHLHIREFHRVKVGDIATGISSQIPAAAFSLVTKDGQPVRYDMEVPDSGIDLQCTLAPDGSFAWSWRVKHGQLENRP

[11] = target: Aurora kinase B (Homo sapiens) (UniProt Q96GD4); assay: Inhibition of full length His-tagged recombinant human AURKB expressed in Baculovirus expression system at 0.1 uM using Fluorescein-PKC as substrate incubated for 1 hr by TR-FRET assay relative to control
Chain of Aurora kinase B (Homo sapiens) (Q96GD4 whole entry): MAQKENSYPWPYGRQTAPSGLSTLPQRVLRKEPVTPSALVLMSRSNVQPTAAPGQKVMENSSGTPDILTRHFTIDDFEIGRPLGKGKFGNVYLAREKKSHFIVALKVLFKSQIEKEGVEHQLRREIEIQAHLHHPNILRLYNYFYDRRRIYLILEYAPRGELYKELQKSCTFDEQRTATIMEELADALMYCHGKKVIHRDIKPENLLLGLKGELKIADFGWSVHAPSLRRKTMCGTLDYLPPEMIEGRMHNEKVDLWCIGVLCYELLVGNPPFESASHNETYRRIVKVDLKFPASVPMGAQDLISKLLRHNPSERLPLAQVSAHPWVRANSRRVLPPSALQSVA

Row | pKi [2] | pKi [10] | SMILES | also measured
1 | > 9.70 | ≤ 5.90 | Cc1cc([C@@](C)(O)C#Cc2ccc3c(c2)-c2nc(C(N)=O)c(C4CC4)n2CCO3)no1 | inhibition [1]: 4%; solubility kinetic [3]: 124 µM (≈ 51.9 µg/mL); inhibition [4]: > 30%; inhibition [5]: 20%; inhibition [6]: 1%; logD [7]: 2; inhibition [8]: 21%; inhibition [9]: 7%
2 | 7.36 | < 5.90 | NC(=O)c1cn2c(n1)-c1cc(C#CC3CCCC3)ccc1C1CC2C1 | –
3 | > 9.70 | – | Cc1cnc([C@](C)(O)C#Cc2ccc3c(c2)-c2nc(C(N)=O)cn2C2CC3C2)o1 | –
4 | 9.05 | 9.10 | Cc1cc([C@](C)(O)C#Cc2ccc3c(c2)-c2nc(C(N)=O)cn2C2CC3C2)no1 | –
5 | 7.60 | 8.00 | NC(=O)c1cn2c(n1)-c1cc(C#CC3(O)CCCC3)ccc1C1CC2C1 | –
6 | 7.85 | < 6.60 | Cc1cc([C@@](C)(O)C#Cc2ccc3c(c2)-c2nc(C(N)=O)cn2CCO3)no1 | –
7 | 7.21 | 6.20 | CCOc1nc2ccc(C#C[C@](C)(O)c3ncc(C)o3)cc2n1-c1ccnc(N)n1 | –
8 | 8.23 | 9.00 | Cc1cc([C@](C)(O)C#Cc2cc3c(cc2F)C2CC(C2)n2cc(C(N)=O)nc2-3)no1 | –
9 | – | 7.85 | CNC(=O)c1c(C(N)=O)nc2n1C1CC(C1)c1cc(F)c(C#C[C@@](C)(O)c3cc(C)on3)cc1-2 | –
10 | 8.44 | 9.80 | CCOc1nc2ccc(C#C[C@@](C)(O)c3ncc(C)o3)cc2n1-c1ccnc(N)n1 | –
11 | > 9.70 | – | Cc1cc([C@](C)(O)C#Cc2cc3c(cc2F)C2CC(C2)n2c-3nc(C(N)=O)c2C2CC2)no1 | logD [7]: 3.7
12 | > 9.70 | < 5.90 | CNC(=O)c1c(C(N)=O)nc2n1C1CC(C1)c1ccc(C#CC(C)(C)c3ncc(C)o3)cc1-2 | inhibition [11]: 45%; solubility kinetic [3]: 13 µM (≈ 5.77 µg/mL); inhibition [4]: Active; inhibition [5]: 51%; logD [7]: 3.7; inhibition [8]: 57%
13 | 7.19 | 6.24 | Cc1cc([C@@](C)(O)C#Cc2ccc3c(c2)-c2nc(C(N)=O)cn2C2CC3C2)no1 | –
14 | > 9.70 | < 5.90 | Cc1cnc(C(C)(C)C#Cc2ccc3c(c2)-c2nc(C(N)=O)c(C4CC4)n2C2CC3C2)o1 | inhibition [11]: > 40%; solubility kinetic [3]: 35 µM (≈ 14.9 µg/mL); logD [7]: 4.4
15 | 8.31 | 8.51 | Cc1cc([C@](C)(O)C#Cc2ccc3c(c2)-c2nc(C(N)=O)cn2CCO3)no1 | –
16 | 8.38 | – | Cc1cnc([C@@](C)(O)C#Cc2ccc3c(c2)-c2nc(C(N)=O)cn2C2CC3C2)o1 | –
